According to the supplement of paper PMC11061612:

Experiments:
[1] = compound: CC(=O)O[C@H]1C(=O)[C@@]2(C)[C@H]([C@H](OC(=O)c3ccccc3)[C@]3(O)C[C@H](OC(=O)[C@H](O)[C@@H](NC(=O)c4ccccc4)c4ccccc4)C(C)=C1C3(C)C)[C@]1(OC(C)=O)CO[C@@H]1C[C@@H]2O [Paclitaxel]; settings: max 3 µM
Method in brief: (§1)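 Following 24 hours at 37°C and 5% CO2, cancer cell lines in 1536-well plates with 7.5 μl DMEM/F12 or RPMI and 10% FBS were dosed for 72 hours, final DMSO typically being 0.2%. CellTiter-Glo 2.0 luminescence, scaled between blank-well and DMSO-well means, gave the viability readout. Dose responses were fitted to a two-parameter logistic curve with a non-linear mixed effects model, and the single-agent IC50 was derived from this fit.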

[2] = compound: C[C@@H](Oc1cc(-c2cnn(C3CCNCC3)c2)cnc1N)c1c(Cl)ccc(F)c1Cl [Crizotinib]; settings: max 10 µM
Method in brief: as §1

[3] = compound: CC(C)n1c(=O)n(C)c2cnc3cc(F)c(-c4ccc(OCCCN5CCCCC5)nc4)cc3c21 [AZD1390]; settings: max 0.3 µM
Method in brief: as §1

[4] = compound: CCN(CCO)CCCOc1ccc2c(Nc3cc(CC(=O)Nc4cccc(F)c4)[nH]n3)ncnc2c1 [AZD2811]; settings: max 1 µM
Method in brief: as §1

[5] = compound: CN(C)CCCOc1ccc(-c2ccc3ncc4c(c3c2)n(C2CCOCC2)c(=O)n4C)cn1 [AZD0156]; settings: max 3 µM
Method in brief: as §1

[6] = compound: Cn1cnc2c(F)c(Nc3ccc(Br)cc3Cl)c(C(=O)NOCCO)cc21 [Selumetinib]; settings: max 10 µM
Method in brief: as §1

[7] = compound: COc1cccc(OCCCN)c1-c1cc(Nc2cnc(C#N)cn2)n[nH]1 [Prexasertib]; settings: max 1 µM
Method in brief: as §1

[8] = compound: Cc1nc(-c2cn3c(n2)-c2ccc(-c4cnn(C(C)(C)C(N)=O)c4)cc2OCC3)n(C(C)C)n1 [Taselisib]; settings: max 10 µM
Method in brief: as §1

[9] = compound: CC1(C)CCC(CN2CCN(c3ccc(C(=O)NS(=O)(=O)c4ccc(NCC5CCOCC5)c([N+](=O)[O-])c4)c(Oc4cnc5[nH]ccc5c4)c3)CC2)=C(c2ccc(Cl)cc2)C1 [Venetoclax]; settings: max 1 µM
Method in brief: as §1

[10] = compound: CN(CC[C@H](CSC1=CC=CC=C1)NC2=C(C=C(C=C2)S(=O)(=O)NC(=O)C3=CC=C(C=C3)N4CCC(CC4)[C@H](C5=CC=CC=C5C6=CC=C(C=C6)Cl)O)S(=O)(=O)C(F)(F)F)CCO [AZD4320]; settings: max 1 µM
Method in brief: as §1

[11] = compound: NC1(c2ccc(-c3nc4ccn5c(=O)[nH]nc5c4cc3-c3ccccc3)cc2)CCC1 [MK-2206]; settings: max 10 µM
Method in brief: as §1

[12] = compound: C[C@@H](c1ccc2nccn2c1)n1nnc2ncc(-c3cnn(C)c3)nc21 [Savolitinib]; settings: max 1 µM
Method in brief: as §1

[13] = compound: CC1=CN2[C@@H](C1)C=NC3=CC(=C(C=C3C2=O)OC)OCCCCCOC4=C(C=C5C(=C4)N=C[C@@H]6CC(=CN6C5=O)C)OC [SG3199]; settings: max 0.001 µM
Method in brief: as §1

[14] = compound: C[C@@H](Nc1cc(F)cc(F)c1)c1cc(C(=O)N(C)C)cc2c(=O)cc(N3CCOCC3)oc12 [AZD8186]; settings: max 10 µM
Method in brief: as §1

[15] = compound: COc1nnc2ccc(N3CCC(c4ccc(OCCN5CCN(C)C(=O)[C@H]5C)cc4)CC3)nn12 [AZD5153]; settings: max 1 µM
Method in brief: as §1

[16] = compound: C=CCn1c(=O)c2cnc(Nc3ccc(N4CCN(C)CC4)cc3)nc2n1-c1cccc(C(C)(C)O)n1 [AZD1775]; settings: max 3 µM
Method in brief: as §1

[17] = compound: CS(=O)(=O)CCNCc1ccc(-c2ccc3ncnc(Nc4ccc(OCc5cccc(F)c5)c(Cl)c4)c3c2)o1 [Lapatinib]; settings: max 10 µM
Method in brief: as §1

[18] = compound: COc1cc([C@@H]2c3cc4c(cc3[C@@H](O[C@@H]3O[C@@H]5CO[C@@H](C)O[C@H]5[C@H](O)[C@H]3O)[C@H]3COC(=O)[C@H]23)OCO4)cc(OC)c1O [Etoposide]; settings: max 10 µM
Method in brief: as §1

[19] = compound: O=C(Nc1ccc2[nH]nc(-c3ccncc3)c2c1)[C@@H]1CCN(CC(=O)N2CCN(c3ccc(-c4ncccn4)cc3)CC2)C1; settings: max 5 µM
Method in brief: as §1

[20] = compound: CCc1c2c(nc3ccc(O)cc13)-c1cc3c(c(=O)n1C2)COC(=O)[C@]3(O)CC [SN-38]; settings: max 0.3 µM
Method in brief: as §1

[21] = compound: C1CC(C1)(C(=O)[O-])C(=O)[O-].N.N.[Pt+2] [Carboplatin]; settings: max 10 µM
Method in brief: as §1

[22] = compound: CC(=O)Nc1cccc(-n2c(=O)n(C3CC3)c(=O)c3c(Nc4ccc(I)cc4F)n(C)c(=O)c(C)c32)c1 [Trametinib]; settings: max 1 µM
Method in brief: as §1

[23] = compound: COc1cccc2c1C(=O)c1c(O)c3c(c(O)c1C2=O)C[C@@](O)(C(=O)CO)C[C@@H]3O[C@H]1C[C@H](N)[C@H](O)[C@H](C)O1 [Doxorubicin]; settings: max 1 µM
Method in brief: as §1

[24] = compound: Nc1ccn([C@@H]2O[C@H](CO)[C@@H](O)C2(F)F)c(=O)n1 [Gemcitabine]; settings: max 0.3 µM
Method in brief: as §1

[25] = compound: C1CN(CCC1(C(=O)N[C@@H](CCO)C2=CC=C(C=C2)Cl)N)C3=NC=NC4=C3C=CN4 [AZD5363]; settings: max 10 µM
Method in brief: as §1

[26] = compound: O=c1[nH]cc(F)c(=O)[nH]1 [5-Fluorouracil]; settings: max 20 µM
Method in brief: as §1

[27] = compound: CC1=C(C(=CC=C1)Cl)NC(=O)C2=CN=C(S2)NC3=CC(=NC(=N3)C)N4CCN(CC4)CCO [Dasatinib]; settings: max 2 µM
Method in brief: as §1

[28] = compound: N#Cc1cnc(Nc2cc(NC[C@H]3CNCCO3)c(C(F)(F)F)cn2)cn1 [SRA737]; settings: max 10 µM
Method in brief: as §1

[29] = compound: CC(=O)c1c(C)c2cnc(Nc3ccc(N4CCNCC4)cn3)nc2n(C2CCCC2)c1=O [Palbociclib]; settings: max 10 µM
Method in brief: as §1

[30] = compound: COc1cc2ncnc(Nc3ccc(F)c(Cl)c3)c2cc1OCCCN1CCOCC1 [Gefitinib]; settings: max 10 µM
Method in brief: as §1

[31] = compound: Cc1c2c(nn1C)CSCc1cc(n(C)n1)CSc1cc(c3ccccc3c1)OCCCc1c(C(=O)O)n(C)c3c-2c(Cl)ccc13 [AZD5991]; settings: max 1 µM
Method in brief: as §1

[32] = compound: O=C(c1cc(Cc2n[nH]c(=O)c3ccccc23)ccc1F)N1CCN(C(=O)C2CC2)CC1 [Olaparib]; settings: max 10 µM
Method in brief: as §1

[33] = compound: COc1cc(Nc2ncc3c(n2)-c2ccc(Cl)cc2C(c2c(F)cccc2OC)=NC3)ccc1C(=O)O [Alisertib]; settings: max 10 µM
Method in brief: as §1

[34] = compound: C[C@@H]1COCCN1C2=NC(=NC(=C2)C3(CC3)[S@](=N)(=O)C)C4=C5C=CNC5=NC=C4 [AZD6738]; settings: max 10 µM
Method in brief: as §1

[35] = compound: Cc1cc2ncnn2cc1Nc1ncc2c(n1)n(C1CCOCC1)c(=O)n2C [AZD7648]; settings: max 10 µM
Method in brief: as §1

Row | Cell Line | IC50, cell viability 72 h [1] [µM] | IC50, cell viability 72 h [2] [µM] | IC50, cell viability 72 h [3] [µM] | IC50, cell viability 72 h [4] [µM] | IC50, cell viability 72 h [5] [µM] | IC50, cell viability 72 h [6] [µM] | IC50, cell viability 72 h [7] [µM] | IC50, cell viability 72 h [8] [µM] | IC50, cell viability 72 h [9] [µM] | IC50, cell viability 72 h [10] [µM] | IC50, cell viability 72 h [11] [µM] | IC50, cell viability 72 h [12] [µM] | IC50, cell viability 72 h [13] [µM] | IC50, cell viability 72 h [14] [µM] | IC50, cell viability 72 h [15] [µM] | IC50, cell viability 72 h [16] [µM] | IC50, cell viability 72 h [17] [µM] | IC50, cell viability 72 h [18] [µM] | IC50, cell viability 72 h [19] [µM] | IC50, cell viability 72 h [20] [µM] | IC50, cell viability 72 h [21] [µM] | IC50, cell viability 72 h [22] [µM] | IC50, cell viability 72 h [23] [µM] | IC50, cell viability 72 h [24] [µM] | IC50, cell viability 72 h [25] [µM] | IC50, cell viability 72 h [26] [µM] | IC50, cell viability 72 h [27] [µM] | IC50, cell viability 72 h [28] [µM] | IC50, cell viability 72 h [29] [µM] | IC50, cell viability 72 h [30] [µM] | IC50, cell viability 72 h [31] [µM] | IC50, cell viability 72 h [32] [µM] | IC50, cell viability 72 h [33] [µM] | IC50, cell viability 72 h [34] [µM] | IC50, cell viability 72 h [35] [µM]
1 | SW1463 (Colorectal Carcinoma) | > 3 | > 10 | > 0.3 | > 1 | > 3 | 4.95 | 0.288 | > 10 | > 1 | > 1 | > 10 | > 1 | > 0.001 | > 10 | > 1 | > 3 | > 10 | > 10 | > 5 | > 0.3 | > 10 | 0.0784 | > 1 | > 0.3 | > 10 | > 20 | > 2 | > 10 | 7.12 | 3.27 | > 1 | > 10 | > 10 | > 10 | > 10
2 | NCI-H2452 (Mesothelioma) | 0.097 | > 10 | > 0.3 | > 1 | > 3 | > 10 | 0.244 | > 10 | > 1 | > 1 | > 10 | > 1 | > 0.001 | > 10 | > 1 | 0.71 | > 10 | > 10 | > 5 | > 0.3 | > 10 | > 1 | > 1 | > 0.3 | > 10 | > 20 | 0.531 | > 10 | > 10 | > 10 | > 1 | > 10 | 8.63 | > 10 | > 10
